Data from US12162867B2, “Inhibitors of RNA helicase DHX9 and uses thereof” (ACCENT THERAPEUTICS, INC., priority 2022, dated 2024).

Each molecule was assayed on circBRIP1 in HCT116 cells (assay: DHX9 circBRIP1 cellular target engagement TaqMan Multiplex assay (qPCR)). Conditions: Homo sapiens, HCT-116, circBRIP1, HCT116 cells; * Taqman assay was used; read-out: DHX9 Cellular Target Engagement EC50.
Assay type: cell-based

| Compound | EC50 [nM] |
| --- | --- |
| Cn1cc(C(=O)Nc2cc(Cl)cc(NS(C)(=O)=O)c2)cc1-c1ccc(N2CC3(C2)CC(F)(F)C3)cn1 [Example 498] | 131 |
| Cc1sc(C(=O)Nc2cc(Cl)cc(NS(C)(=O)=O)c2)cc1-c1ncc(F)cc1N1CCS(=O)(=O)CC1 [Example 503] | 9030 |
| CC(=O)N1CCN(c2cc(F)cnc2-c2cc(C(=O)Nc3cc(Cl)cc(NS(C)(=O)=O)c3)sc2C)CC1 [Example 504] | 6860 |
| COC1CCN(c2cc(F)cnc2-c2cc(C(=O)Nc3cc(Cl)cc(NS(C)(=O)=O)c3)sc2C)C1 (centres unmarked) [Example 505] | 219 |
| Cc1sc(C(=O)Nc2cc(Cl)cc(NS(C)(=O)=O)c2)cc1-c1ncc(F)cc1N1CCN(S(C)(=O)=O)CC1 [Example 506] | 725 |
| Cc1sc(C(=O)Nc2cc(Cl)cc(NS(C)(=O)=O)c2)cc1-c1ncc(F)cc1N1CCC2(CC1)CC2 [Example 507] | 1860 |
| CC(C)Oc1cc(N2CC(F)(F)C2)cnc1-c1cc(C(=O)Nc2cc(Cl)cc(NS(C)(=O)=O)c2)cn1C [Example 513] | 133 |
| Cn1cc(C(=O)Nc2cc(Cl)cc(NS(C)(=O)=O)c2)cc1-c1ccc(N2CC(S(C)(=O)=O)C2)cn1 [Example 519] | 191 |
| Cc1sc(C(=O)Nc2cc(Cl)cc(NS(=O)(=O)CCO)c2)cc1-c1ncc(N2CC(C(F)(F)F)C2)cc1F [Example 529] | 253 |
| Cn1cc(C(=O)Nc2cc(Cl)cc(NS(=O)(=O)C3CC3)c2)cc1-c1ccc(N2CC(F)(F)C2)cn1 [Example 530] | > 10000 |
| CCCS(=O)(=O)Nc1cc(Cl)cc(NC(=O)c2cc(-c3ccc(N4CC(F)(F)C4)cn3)n(C)c2)c1 [Example 531] | > 10000 |
| CCS(=O)(=O)Nc1cc(Cl)cc(NC(=O)c2cc(-c3ncc(F)cn3)n(C)c2)c1 [Example 542] | 307 |
| CCS(=O)(=O)Nc1cc(Cl)cc(NC(=O)c2cc(-c3ncc(F)cc3F)n(C)c2)c1 [Example 543] | 183 |
| Cn1cc(C(=O)Nc2cc(Cl)cc(NS(C)(=O)=O)c2)cc1-c1ncc(F)cc1Cl [Example 544] | 538 |
| Cc1cc(F)cnc1-c1cc(C(=O)Nc2cc(Cl)cc(NS(C)(=O)=O)c2)cn1C [Example 545] | 192 |
| Cn1cc(C(=O)Nc2cc(Cl)cc(NS(C)(=O)=O)c2)cc1-c1cc(N2CC(F)(F)C2)ccn1 [Example 552] | 238 |
| Cn1cc(C(=O)Nc2cc(Cl)cc(NS(C)(=O)=O)c2)cc1-c1ncc(C(F)(F)F)cc1F [Example 554] | 238 |
| Cn1cc(C(=O)Nc2cc(F)cc(NS(C)(=O)=O)c2)cc1-c1ncc(F)cc1F [Example 558] | 2910 |
| CCOc1cc(F)cnc1-c1cc(C(=O)Nc2cc(Cl)cc(NS(C)(=O)=O)c2)cn1C [Example 561] | 274 |
| CS(=O)(=O)Nc1cc(Cl)cc(NC(=O)c2cc(-c3ncc(F)cn3)n(CC(F)(F)F)c2)c1 [Example 562] | 543 |
| COc1cnc(-c2cc(C(=O)Nc3cc(Cl)cc(NS(C)(=O)=O)c3)cn2CC(F)(F)F)nc1 [Example 563] | 327 |
| CS(=O)(=O)Nc1cc(Cl)cc(NC(=O)c2cc(-c3ncccc3F)n(CC(F)(F)F)c2)c1 [Example 564] | 761 |
| CCS(=O)(=O)Nc1cc(Cl)cc(NC(=O)c2cc(-c3ncc(OC(C)(C)C)cn3)c(C)s2)c1 [Example 566] | 156 |
| Cn1cc(C(=O)Nc2cc(Cl)cc(NS(C)(=O)=O)c2)cc1-c1c(F)cc(F)c[n+]1[O-] [Example 567] | 340 |
| Cc1cnc(-c2cc(C(=O)Nc3cc(Cl)cc(NS(C)(=O)=O)c3)cn2C)c(F)c1 [Example 580] | 156 |
| Cn1cc(C(=O)Nc2cc(Cl)cc(NS(=O)(=O)CCO)c2)cc1-c1ncc(F)cc1F [Example 581] | 1680 |
| Cc1sc(C(=O)Nc2cc(Cl)cc(NS(=O)(=O)CCO)c2)cc1-c1ncc(OC(C)C)cn1 [Example 582] | 210 |
| Cc1sc(C(=O)Nc2cc(Cl)cc(NS(C)(=O)=O)c2)cc1-c1ncc(O)cn1 [Example 583] | 43.1 |
| CCc1sc(C(=O)Nc2cc(Cl)cc(NS(C)(=O)=O)c2)cc1-c1ncccc1F [Example 587] | 128 |
